Experimental data published in publication PMC2904697, “A Screen for Kinetochore-Microtubule Interaction Inhibitors Identifies Novel Antitubulin Compounds” (PLoS ONE, 2010).

Experiments:
taxol-stabilized MTs = test: Compound-based depolymerization of taxol-stabilized MTs in vitro; type: biochemical, bovine; conditions: compound 50 µmol/l; for Taxol-stabilized MT population depolymerized: taxol (20 µmol/l)-stabilized MTs
Experimental: To test this hypothesis, we treated HeLa cells with 0.5 µmol/l taxol, thereby arresting them in metaphase with stabilized spindles. […] To quantify the taxol-mediated inhibition of MT disassembly by compound B, we measured in vitro the depolymerization of taxol (20 µmol/l)-stabilized MTs following incubation with 50 µmol/l compound B (the screen condition). Nocodazole and maytansine (both at 50 µmol/l) were included as controls. At 50 µmol/l, compound B depolymerized 3% of the taxol-stabilized MT population, while nocodazole and maytansine depolymerized 11% and 31% of the taxol-treated MTs, respectively (Fig. 4B). […] This finding further supports our hypothesis that the interaction of compound B with the stabilized MTs must have prevented the Ndc80^488 complex from establishing contact with the MT surface.
MTs were polymerized (30 min, 37°C) from a 1∶10 mixture of rhodamine-labeled:unlabeled bovine brain αβ-tubulin (Cytoskeleton) in BRB-80 buffer (80 mmol/l PIPES pH 6.8, 1 mmol/l MgCl2, 1 mmol/l EGTA) and were then stabilized with 20 µmol/l taxol. The Ndc80^488 complex (0.1 µmol/l) was incubated with 100 µmol/l compound (30 min, 24°C) in 96-well polypropylene plates (Eppendorf). The 10,000 compound DIVERset library (Chembridge) and 200 compounds from the Department of Medicinal Chemistry and Technologies, University of Rome La Sapienza were used in the screen. Next, the MTs (100 nmol/l) were added to the compound-Ndc80^488 complex solution in a 1∶1 v/v ratio. After incubation (10 min, 24°C), the reaction mixtures were transferred to 96-well glass-bottom plates (Greiner Bio-one). Each well was imaged at 519 nm and 590 nm with an IX81 Olympus inverted wide-field microscope (Olympus). Total internal reflection fluorescence imaging was performed with an Olympus IX71 inverted wide-field microscope (Olympus). ImageJ was used for image processing (NIH, USA).
Taxol-stabilized MTs were prepared and diluted as described for the Ndc80^488 binding experiments. Varying compound concentrations in 10 µl of DMSO were added to 490 µl of diluted MTs at 37°C. Following incubation (30 min, 37°C), 450 µl of each mixture was centrifuged (10 min; 30,000 rpm; 37°C) in a Beckman Optima TLX centrifuge (TLA120.1 rotor). Pellets were dissolved in 25 µl of 8 mol/l urea, and the protein content of 20 µl was compared with that from pellets formed without compound.

[1] = test system: colchicine site in αβ-tubulin; test: [3H]colchicine competition (DEAE-cellulose filter method); type: binding; conditions: [3H]colchicine 5 µmol/l, tubulin 1 µmol/l
Description: Agents that inhibit tubulin polymerization and destabilize MTs include the colchicinoids, combretastatins, benzimidazole carbamates, vinca alkaloids, and maytansinoids. These drugs act primarily at β-tubulin in the αβ-heterodimer, albeit at different sites. Colchicinoids, combretastatins and benzimidazole carbamates (e.g. nocodazole) localize to the colchicine site near the C-terminus of β-tubulin at the αβ-tubulin intradimer interface, [16], whereas vinca alkaloids and maytansinoids localize to the N-terminal GTPase domain of β-tubulin [17], [18]. […] Its binding affinity, however, was ∼3-fold lower than that of nocodazole (compare values at 5 µmol/l and 20 µmol/l, Fig. 5C).
Tubulin binding of [^3H]colchicine was measured by the DEAE-cellulose filter method. Reaction mixtures contained 1.0 µmol/l αβ-tubulin, 1.0 mol/l monosodium glutamate, 0.1 mol/l glucose-1-phosphate, 1.0 mmol/l MgCl2, 1.0 mmol/l GTP, 0.5 mg/ml BSA, 5% DMSO, 5 µmol/l [^3H]colchicine, and inhibitor at 1, 5, 20 or 50 µmol/l. These reaction conditions strongly stabilize the colchicine-binding activity of tubulin [21].

HeLa cells = test: Mitotic delay and cell death in G1/S-synchronized HeLa cells (time-lapse videomicroscopy); type: cell-based, human
Experimental: At compound B concentrations of 5 µmol/l and above, the cells arrested robustly in metaphase (∼15 h) and then underwent cell death, as diagnosed by cell shrinkage (Fig. 3B). […] This phenotype is indicative of chromatids being unable to bind to spindle MTs and/or of spindle defects, as observed with nocodazole (Fig. 3C). […] Because drugs that inhibit tubulin polymerization also destabilize MTs, we next probed whether compound B destabilized metaphase spindles. We arrested HeLa cells in metaphase using 10 µmol/l of proteosome inhibitor MG132. […] Thus, compound B prevents tubulin assembly and destabilizes spindle MTs in cells.
Next, we determined whether the elevated antitubulin activities of compounds A6, A8, D7 and E7 (versus compound B), and the discrepancies in activity between the compounds themselves were reflected in their effects on mitosis. G1/S synchronized HeLa cells were released into growth medium containing 100 or 500 nmol/l of these compounds or compound B; the duration of the mitotic delay by the compounds and the percentage of cells undergoing subsequent cell death were scored. […] The four compounds triggered mitotic delays to an extent that directly reflects their activities in vitro (compare Fig. 6E and Fig. 6, panels B to D). […] Of note, each of our compounds acted in cells with an efficacy exceeding those measured in vitro (compare Fig. 6E and Fig. 5). This discrepancy may be due to increased compound:tubulin ratios in cells. Alternatively, the compounds may be modified intracellularly, resulting in enhanced activity. Because compound B and the four second-generation compounds are 6-furan-2-yl-3-methyl-4-oxo-4,5,6,7-tetrahydro-1H-indole-2-carboxylic acid derivatives, we have named these tubulin inhibitors “furan-metoticas”.

αβ-tubulin = test: Tubulin polymerization tracked turbidimetrically at 350 nm; type: biochemical; conditions: for IC50: 10 µmol/l αβ-tubulin, GTP-containing buffer, turbidity 350 nm, read-out: IC50 for inhibition of tubulin polymerization
Experimental: To quantify the antitubulin activity of compound B, we added 1–50 µmol/l compound B to 10 µmol/l αβ-tubulin. […] For this purpose, MTs were assembled from 10 µmol/l αβ-tubulin; 5 min into the reaction compound B was added in concentrations up to 200 µmol/l. MT depolymerization was tracked as a decrease in turbidity at 350 nm (Fig. 5B).
Polymerization of 10 µmol/l αβ-tubulin in BRB-80 buffer was monitored turbidimetrically at 350 nm for 15 min in a temperature-controlled spectrophotometer (37°C; SpectraMax Plus^384, Molecular Devices). To probe the effect of a compound on MT stability the molecule was added 5 min after initiation of tubulin assembly. The decrease in protein turbidity (350 nm) resulting from MT depolymerization was followed for 15 min at 37°C [13]. Quantitative comparisons of drug effects on tubulin assembly were also examined in 0.8 M glutamate with a 15 min drug-tubulin preincubation prior to the addition of GTP [14]. Tubulin assembly was monitored for 20 min at 30°C in Beckman DU7400/7500 spectrophotometers, and the compound concentration inhibiting tubulin assembly by 50% was determined.

Compound: CCSCCOC(=O)c1[nH]c2c(c1C)C(=O)C[C@@H](c1ccco1)C2 [A8]
- Depolymerization of taxol-stabilized MTs (taxol-stabilized MTs): mildly depolymerized
- Fold more active than compound B as inhibitors of [3H]colchicine-tubulin binding [1]: 3 fold
- Effect on mitosis at 500 nmol/l (HeLa cells; HeLa released from G1/S, 500 nmol/l): robust mitotic block, followed by cell death
- Fold lower IC50 for inhibiting tubulin assembly than that of compound B (αβ-tubulin; turbidimetric, versus compound B): 4.2 fold

Compound: Cc1c(C(=O)OCC2CCCO2)[nH]c2c1C(=O)CC(c1ccco1)C2 (centres unmarked) [compound B, 6-furan-2-yl-3-methyl-4-oxo-4,5,6,7,-tetrahydro-1H-indole-2-carboxylic acid tetrahydro-furan-2-ylmethyl ester]
- Taxol-stabilized MT population depolymerized (taxol-stabilized MTs): 3%
- Binding affinity for the colchicine site, fold lower than that of nocodazole ([1]; values at 5 and 20 µmol/l compared): ~3 fold
- Inhibition of [3H]colchicine binding to tubulin ([1]; compound 1–50 µmol/l): significantly inhibited
- Concentration inducing a mitotic delay (HeLa cells; HeLa released from G1/S): 1 to 10 µmol/L
- Concentration inducing cell death (HeLa cells; HeLa released from G1/S): 5 to 10 µmol/L
- Duration of metaphase arrest (HeLa cells; HeLa, compound concentrations of 5 µmol/l and above, followed by cell death): ~15 h
- IC50 (αβ-tubulin): 5.5 µM

Compound: COC(=O)Nc1nc2ccc(C(=O)c3cccs3)cc2[nH]1 [nocodazole, reference compound]
- Taxol-stabilized MT population depolymerized (taxol-stabilized MTs): 11%
